Assay results taken from the NIST ThermoML archive (doi:10.1021/je100687x).

Assay: xn = mol fraction of the nth substance listed
Details: 101 kPa, Liquid; for electrical conductivity: Crison GLP 31+ conductivimeter

CCCCn1cc[n+](C)c1.F[B-](F)(F)F [1-butyl-3-methylimidazolium tetrafluoroborate] + CCO
Details	electrical conductivity [S/m]	viscosity [mPa·s]
288.15 K, x2 = 0	–	173.5
288.15 K, x2 = 0.0765	–	121.4
288.15 K, x2 = 0.199	–	69.06
288.15 K, x2 = 0.2894	–	45.23
288.15 K, x2 = 0.3918	–	28.39
288.15 K, x2 = 0.4976	–	18.13
288.15 K, x2 = 0.6001	–	12.35
288.15 K, x2 = 0.717	–	7.86
288.15 K, x2 = 0.7998	–	5.676
288.15 K, x2 = 0.9014	–	3.06
298.15 K, x2 = 0	0.352	99.2
298.15 K, x2 = 0.0368	0.393	–
298.15 K, x2 = 0.0765	–	72.49
298.15 K, x2 = 0.1136	0.522	–
298.15 K, x2 = 0.1492	0.594	–
298.15 K, x2 = 0.199	–	44.05
298.15 K, x2 = 0.2894	–	30.15
298.15 K, x2 = 0.2992	0.939	–
298.15 K, x2 = 0.3918	–	19.7
298.15 K, x2 = 0.4162	1.268	–
298.15 K, x2 = 0.4976	–	12.97
298.15 K, x2 = 0.5137	1.551	–
298.15 K, x2 = 0.5866	1.729	–
298.15 K, x2 = 0.6001	–	9.038
298.15 K, x2 = 0.6426	1.826	–
298.15 K, x2 = 0.6863	1.871	–
298.15 K, x2 = 0.717	–	5.25
298.15 K, x2 = 0.7204	1.874	–
298.15 K, x2 = 0.7498	1.859	–
298.15 K, x2 = 0.7947	1.745	–
298.15 K, x2 = 0.7998	–	4.286
298.15 K, x2 = 0.8394	1.564	–
298.15 K, x2 = 0.8763	1.343	–
298.15 K, x2 = 0.8835	1.297	–
298.15 K, x2 = 0.8908	1.249	–
298.15 K, x2 = 0.9014	–	2.371
298.15 K, x2 = 0.9034	1.155	–
298.15 K, x2 = 0.9134	1.077	–
298.15 K, x2 = 0.9217	1.01	–
298.15 K, x2 = 0.9287	0.94	–
298.15 K, x2 = 0.9347	0.874	–
298.15 K, x2 = 0.9399	0.825	–
298.15 K, x2 = 0.9493	0.733	–
298.15 K, x2 = 0.9564	0.658	–
298.15 K, x2 = 0.9617	0.597	–
298.15 K, x2 = 0.9668	0.536	–
298.15 K, x2 = 0.9755	0.423	–
298.15 K, x2 = 0.9897	0.221	–
298.15 K, x2 = 0.9916	0.194	–
298.15 K, x2 = 0.9934	0.162	–
298.15 K, x2 = 0.9972	0.0851	–
308.15 K, x2 = 0	–	61.3
308.15 K, x2 = 0.0765	–	46.39
308.15 K, x2 = 0.199	–	29.81
308.15 K, x2 = 0.2894	–	21.18
308.15 K, x2 = 0.3918	–	14.45
308.15 K, x2 = 0.4976	–	9.836
308.15 K, x2 = 0.6001	–	7.026
308.15 K, x2 = 0.717	–	4.056
308.15 K, x2 = 0.7998	–	3.363
308.15 K, x2 = 0.9014	–	1.947
318.15 K, x2 = 0	–	40.4
318.15 K, x2 = 0.0765	–	31.43
318.15 K, x2 = 0.199	–	21.16
318.15 K, x2 = 0.2894	–	15.5
318.15 K, x2 = 0.3918	–	11.01
318.15 K, x2 = 0.4976	–	7.691
318.15 K, x2 = 0.6001	–	5.567
318.15 K, x2 = 0.717	–	3.252
318.15 K, x2 = 0.7998	–	2.723
318.15 K, x2 = 0.9014	–	1.641

CCCCCCCC[n+]1ccn(C)c1.F[B-](F)(F)F [1-methyl-3-octylimidazolium tetrafluoroborate] + CCO
Details	electrical conductivity [S/m]	viscosity [mPa·s]
288.15 K, x2 = 0	–	686
288.15 K, x2 = 0.0891	–	428.3
288.15 K, x2 = 0.1902	–	244.7
288.15 K, x2 = 0.2927	–	141
288.15 K, x2 = 0.3914	–	73.44
288.15 K, x2 = 0.4911	–	45.24
288.15 K, x2 = 0.5938	–	26.02
288.15 K, x2 = 0.6979	–	14.53
288.15 K, x2 = 0.798	–	7.219
288.15 K, x2 = 0.9002	–	3.499
298.15 K, x2 = 0	0.069	337.4
298.15 K, x2 = 0.0891	–	224.8
298.15 K, x2 = 0.1236	0.108	–
298.15 K, x2 = 0.183	0.143	–
298.15 K, x2 = 0.1902	–	140.9
298.15 K, x2 = 0.2395	0.191	–
298.15 K, x2 = 0.2898	0.239	–
298.15 K, x2 = 0.2927	–	83.3
298.15 K, x2 = 0.3359	0.291	–
298.15 K, x2 = 0.3914	–	46.35
298.15 K, x2 = 0.4147	0.396	–
298.15 K, x2 = 0.4783	0.5	–
298.15 K, x2 = 0.4911	–	29.85
298.15 K, x2 = 0.5316	0.59	–
298.15 K, x2 = 0.5759	0.672	–
298.15 K, x2 = 0.5938	–	17.84
298.15 K, x2 = 0.6135	0.737	–
298.15 K, x2 = 0.6455	0.786	–
298.15 K, x2 = 0.6799	0.834	–
298.15 K, x2 = 0.6979	–	10.39
298.15 K, x2 = 0.7089	0.872	–
298.15 K, x2 = 0.7381	0.911	–
298.15 K, x2 = 0.7667	0.918	–
298.15 K, x2 = 0.7922	0.926	–
298.15 K, x2 = 0.798	–	5.362
298.15 K, x2 = 0.8138	0.92	–
298.15 K, x2 = 0.832	0.903	–
298.15 K, x2 = 0.8472	0.882	–
298.15 K, x2 = 0.8663	0.844	–
298.15 K, x2 = 0.8814	0.8	–
298.15 K, x2 = 0.8938	0.762	–
298.15 K, x2 = 0.9002	–	2.764
298.15 K, x2 = 0.9087	0.696	–
298.15 K, x2 = 0.9197	0.639	–
298.15 K, x2 = 0.9307	0.583	–
298.15 K, x2 = 0.9409	0.526	–
298.15 K, x2 = 0.9502	0.454	–
298.15 K, x2 = 0.9586	0.393	–
298.15 K, x2 = 0.9692	0.304	–
298.15 K, x2 = 0.9771	0.239	–
298.15 K, x2 = 0.9851	0.155	–
298.15 K, x2 = 0.9915	0.0924	–
308.15 K, x2 = 0	–	187.7
308.15 K, x2 = 0.0891	–	132.1
308.15 K, x2 = 0.1902	–	85.86
308.15 K, x2 = 0.2927	–	53.62
308.15 K, x2 = 0.3914	–	31.24
308.15 K, x2 = 0.4911	–	20.79
308.15 K, x2 = 0.5938	–	12.87
308.15 K, x2 = 0.6979	–	7.756
308.15 K, x2 = 0.798	–	4.135
308.15 K, x2 = 0.9002	–	2.206
318.15 K, x2 = 0	–	112.1
318.15 K, x2 = 0.0891	–	81.45
318.15 K, x2 = 0.1902	–	56.18
318.15 K, x2 = 0.2927	–	36.49
318.15 K, x2 = 0.3914	–	22.1
318.15 K, x2 = 0.4911	–	15.44
318.15 K, x2 = 0.5938	–	9.671
318.15 K, x2 = 0.6979	–	6.015
318.15 K, x2 = 0.798	–	3.283
318.15 K, x2 = 0.9002	–	1.802
